Assay results taken from ChEMBL document CHEMBL3813593, “Design, synthesis and biological evaluation of 4-aminopyrimidine-5-cabaldehyde oximes as dual inhibitors of c-Met and VEGFR-2” (Bioorg Med Chem, 2016).

Experiments:
[1] = Lipophilicity, log P of compound by shake flask method; type: physicochemical; conditions: octanol/water
[2] = target: Hepatocyte growth factor receptor (Homo sapiens, UniProt P08581); assay: Inhibition of recombinant c-Met (unknown origin) using poly (Glu, Tyr) 4:1 as substrate incubated for 60 mins by ELISA
cells = conditions: Mus musculus, BaF3, 72 h
[3] = target: T1, Vascular endothelial growth factor receptor 2 (Homo sapiens, UniProt P35968); assay: Inhibition of recombinant VEGFR2 (unknown origin) using poly (Glu, Tyr) 4:1 as substrate incubated for 60 mins by ELISA
HUVEC = assay: Antiproliferative activity against recombinant human VEGF-stimulated HUVEC after 120 hrs by CCK8 assay; type: functional, cell-based
[4] = target: T1, Vascular endothelial growth factor receptor 2; assay: Inhibition of VEGFR2 (unknown origin)

T1 sequence (P35968 whole entry): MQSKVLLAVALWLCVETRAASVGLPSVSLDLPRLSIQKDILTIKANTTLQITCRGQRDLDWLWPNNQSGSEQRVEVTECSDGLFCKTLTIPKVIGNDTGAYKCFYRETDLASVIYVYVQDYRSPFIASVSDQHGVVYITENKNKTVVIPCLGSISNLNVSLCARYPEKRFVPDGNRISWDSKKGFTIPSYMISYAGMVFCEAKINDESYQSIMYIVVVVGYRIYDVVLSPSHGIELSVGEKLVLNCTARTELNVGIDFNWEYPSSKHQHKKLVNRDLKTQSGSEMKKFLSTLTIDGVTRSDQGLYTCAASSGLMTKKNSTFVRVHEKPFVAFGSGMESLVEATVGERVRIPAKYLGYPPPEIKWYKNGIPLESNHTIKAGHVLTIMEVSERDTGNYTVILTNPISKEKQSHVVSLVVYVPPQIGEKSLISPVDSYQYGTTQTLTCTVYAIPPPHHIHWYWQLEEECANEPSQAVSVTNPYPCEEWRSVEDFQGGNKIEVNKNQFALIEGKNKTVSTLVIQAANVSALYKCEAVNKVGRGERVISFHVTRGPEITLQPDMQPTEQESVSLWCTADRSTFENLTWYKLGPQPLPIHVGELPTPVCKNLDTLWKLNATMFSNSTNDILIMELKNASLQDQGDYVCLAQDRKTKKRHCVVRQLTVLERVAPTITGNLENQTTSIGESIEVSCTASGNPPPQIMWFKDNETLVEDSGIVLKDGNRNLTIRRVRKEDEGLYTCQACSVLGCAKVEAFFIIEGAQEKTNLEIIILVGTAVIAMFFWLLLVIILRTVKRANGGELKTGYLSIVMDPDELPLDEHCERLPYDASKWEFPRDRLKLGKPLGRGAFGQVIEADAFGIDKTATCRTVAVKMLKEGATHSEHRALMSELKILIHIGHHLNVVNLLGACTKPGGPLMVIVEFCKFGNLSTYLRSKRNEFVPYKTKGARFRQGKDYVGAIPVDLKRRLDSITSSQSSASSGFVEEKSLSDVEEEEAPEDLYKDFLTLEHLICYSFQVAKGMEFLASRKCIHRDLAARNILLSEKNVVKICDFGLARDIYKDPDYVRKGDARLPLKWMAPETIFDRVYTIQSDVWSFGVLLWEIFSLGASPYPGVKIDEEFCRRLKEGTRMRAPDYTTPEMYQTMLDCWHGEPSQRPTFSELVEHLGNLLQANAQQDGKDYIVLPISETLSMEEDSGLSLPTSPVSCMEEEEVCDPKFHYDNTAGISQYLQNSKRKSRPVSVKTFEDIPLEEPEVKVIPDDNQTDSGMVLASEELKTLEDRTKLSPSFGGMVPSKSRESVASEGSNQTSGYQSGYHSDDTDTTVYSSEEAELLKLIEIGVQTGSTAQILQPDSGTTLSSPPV
Hepatocyte growth factor receptor, sequence (P08581 whole entry): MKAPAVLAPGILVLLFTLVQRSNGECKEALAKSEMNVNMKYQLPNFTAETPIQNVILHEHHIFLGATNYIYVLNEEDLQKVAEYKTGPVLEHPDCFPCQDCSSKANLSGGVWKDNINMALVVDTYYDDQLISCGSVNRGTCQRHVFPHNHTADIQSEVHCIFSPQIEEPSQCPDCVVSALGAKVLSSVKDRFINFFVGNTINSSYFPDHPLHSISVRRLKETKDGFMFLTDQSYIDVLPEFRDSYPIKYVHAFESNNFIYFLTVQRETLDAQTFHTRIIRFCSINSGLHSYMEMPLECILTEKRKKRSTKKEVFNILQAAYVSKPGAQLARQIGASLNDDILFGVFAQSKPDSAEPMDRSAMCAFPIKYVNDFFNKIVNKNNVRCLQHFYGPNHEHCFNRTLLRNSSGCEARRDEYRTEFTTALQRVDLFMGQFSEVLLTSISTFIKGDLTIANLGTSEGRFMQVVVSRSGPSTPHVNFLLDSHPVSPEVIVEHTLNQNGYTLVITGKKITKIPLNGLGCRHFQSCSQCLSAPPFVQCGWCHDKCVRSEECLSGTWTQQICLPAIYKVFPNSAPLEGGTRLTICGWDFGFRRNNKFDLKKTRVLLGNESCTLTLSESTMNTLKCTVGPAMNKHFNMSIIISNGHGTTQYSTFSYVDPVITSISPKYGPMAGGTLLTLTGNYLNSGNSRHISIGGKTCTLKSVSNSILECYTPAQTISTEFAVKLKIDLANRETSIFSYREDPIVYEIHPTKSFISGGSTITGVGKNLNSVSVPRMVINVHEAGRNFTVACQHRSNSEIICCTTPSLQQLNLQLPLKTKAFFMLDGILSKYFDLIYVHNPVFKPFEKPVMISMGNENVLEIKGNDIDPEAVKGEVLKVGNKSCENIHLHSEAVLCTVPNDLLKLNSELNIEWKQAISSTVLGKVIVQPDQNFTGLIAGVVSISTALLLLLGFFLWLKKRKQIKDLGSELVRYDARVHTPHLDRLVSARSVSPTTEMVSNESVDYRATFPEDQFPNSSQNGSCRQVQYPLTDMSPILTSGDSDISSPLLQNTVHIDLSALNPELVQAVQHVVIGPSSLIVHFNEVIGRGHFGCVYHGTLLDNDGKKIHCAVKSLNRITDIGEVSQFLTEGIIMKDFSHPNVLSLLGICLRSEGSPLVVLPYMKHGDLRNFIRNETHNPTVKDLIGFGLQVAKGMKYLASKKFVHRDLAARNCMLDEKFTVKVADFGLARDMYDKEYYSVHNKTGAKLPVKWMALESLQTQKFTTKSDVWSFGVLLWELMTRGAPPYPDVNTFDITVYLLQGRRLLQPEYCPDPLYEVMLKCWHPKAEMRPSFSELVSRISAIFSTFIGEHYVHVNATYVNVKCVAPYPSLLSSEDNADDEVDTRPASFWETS

Compound	logP ([1]; read-out: logP)	IC50 (cells)	IC50 (HUVEC)	also measured
CNc1ncnc(Oc2ccc(NC(=O)C3(C(=O)Nc4ccc(F)cc4)CC3)cc2F)c1/C=N/OC	3.52	> 1000 nM		IC50 [2]: > 10000 nM; IC50 [3]: > 10000 nM
Nc1ncnc(Oc2ccc(NC(=O)C3(C(=O)Nc4ccc(F)cc4)CC3)cc2F)c1/C=N/OCCCO	2.67	110 nM	210 nM	
Nc1ncnc(Oc2ccc(NC(=O)C3(C(=O)Nc4ccc(F)cc4)CC3)cc2F)c1/C=N/OCc1ccccc1	4.45	566 nM		
N/N=C/c1c(N)ncnc1Oc1ccc(NC(=O)C2(C(=O)Nc3ccc(F)cc3)CC2)cc1F	2.25	765 nM		
Nc1ncnc(Oc2ccc(NC(=O)C3(C(=O)Nc4ccc(F)cc4)CC3)cc2F)c1/C=N/OCCO	2.37	200 nM		
Nc1ncnc(Oc2ccc(NC(=O)C3(C(=O)Nc4ccc(F)cc4)CC3)cc2F)c1/C=N/OC1CCCC1	4.27	745 nM		
Nc1ncnc(Oc2ccc(NC(=O)C3(C(=O)Nc4ccc(F)cc4)CC3)cc2F)c1/C=N/OCC(=O)N1CCOCC1	2.1	397 nM		
CC(O)CO/N=C/c1c(N)ncnc1Oc1ccc(NC(=O)C2(C(=O)Nc3ccc(F)cc3)CC2)cc1F (centres undefined)	2.75	258 nM		
Nc1ncnc(Oc2ccc(NC(=O)C3(C(=O)Nc4ccc(F)cc4)CC3)cc2F)c1/C=N/O	2.62	194 nM	260 nM	
CO/N=C/c1c(N)ncnc1Oc1ccc(NC(=O)C2(C(=O)Nc3ccc(F)cc3)CC2)cc1F	3.04	166 nM	320 nM	
CC(C)(C)OC(=O)N/N=C/c1c(N)ncnc1Oc1ccc(NC(=O)C2(C(=O)Nc3ccc(F)cc3)CC2)cc1F	3.7	321 nM		
CCCCO/N=C/c1c(N)ncnc1Oc1ccc(NC(=O)C2(C(=O)Nc3ccc(F)cc3)CC2)cc1F	4.2	626 nM		
COCCCO/N=C/c1c(N)ncnc1Oc1ccc(NC(=O)C2(C(=O)Nc3ccc(F)cc3)CC2)cc1F	3.18	243 nM		
Nc1ncnc(Oc2ccc(NC(=O)C3(C(=O)Nc4ccc(F)cc4)CC3)cc2F)c1/C=N/OCCCN1CCOCC1	2.98	186 nM	427 nM	
CCO/N=C/c1c(N)ncnc1Oc1ccc(NC(=O)C2(C(=O)Nc3ccc(F)cc3)CC2)cc1F	3.41	215 nM		
Nc1ncnc(Oc2ccc(NC(=O)C3(C(=O)Nc4ccc(F)cc4)CC3)cc2F)c1/C=N/OCC(O)CN1CCOCC1 (centres undefined)	2.02	158 nM	720 nM	
Nc1ncnc(Oc2ccc(NC(=O)C3(C(=O)Nc4ccc(F)cc4)CC3)cc2F)c1/C=N/OCCCN1CCCC1	3.82	119 nM	219 nM	
C#CCO/N=C/c1c(N)ncnc1Oc1ccc(NC(=O)C2(C(=O)Nc3ccc(F)cc3)CC2)cc1F	3.34	521 nM		
CCOC(=O)CO/N=C/c1c(N)ncnc1Oc1ccc(NC(=O)C2(C(=O)Nc3ccc(F)cc3)CC2)cc1F	3.15	> 1000 nM		
Nc1ncnc(Oc2ccc(NC(=O)C3(C(=O)Nc4ccc(F)cc4)CC3)cc2F)c1/C=N/OCCN1CCCC1	3.5	162 nM	168 nM	
Nc1ncnc(Oc2ccc(NC(=O)C3(C(=O)Nc4ccc(F)cc4)CC3)cc2F)c1/C=N/OC1CCCCC1	4.69	879 nM		
CN(C)CCCO/N=C/c1c(N)ncnc1Oc1ccc(NC(=O)C2(C(=O)Nc3ccc(F)cc3)CC2)cc1F	3.23	89 nM	110 nM	
C=CCO/N=C/c1c(N)ncnc1Oc1ccc(NC(=O)C2(C(=O)Nc3ccc(F)cc3)CC2)cc1F	3.65	619 nM		
CO/N=C/c1c(N)ncnc1Oc1ccc2[nH]ccc2c1				IC50 [4]: 146 nM
COc1cc2nccc(Oc3ccc(NC(=O)C4(C(=O)Nc5ccc(F)cc5)CC4)cc3)c2cc1OC [CABOZANTINIB]				logP [1]: 4.28
COc1cc2c(Oc3ccc(NC(=O)C4(C(=O)Nc5ccc(F)cc5)CC4)cc3F)ccnc2cc1OCCCN1CCOCC1 [FORETINIB]	4.28			
